Laboratory results: patent publication US12365695B2, “Fused ring heteroaryl compounds as RIPK1 inhibitors” (BiSiChem Co., Ltd., priority 2019, dated 2025)

These compounds were tested on HT-29 cells (assay: Cell-based necroptosis assay for RIPK1 activity (cell viability, CCK-8)). Conditions: HT29 (human colon cancer), Z-VAD-FMK 20 μM, human TNFα 10 ng/ml, SM-164 100 nM, 24 h, read-out: Necroptosis inhibition (IC50).
Method: Human colon carcinoma cell HT-29 (KCLB 30038), BV2 mouse microglial cell (cell was a kind gift from Dr. Nak-Yun Sung, Senior researcher at Korea Prime Pharmacy CO., LTD.) and human microglial cell HMC3 (ATCC® CRL-3304™). HT-29 cell was grown in Roswell Park Memorial Institute (RPMI) 1640, BV2 cell was grown in Dulbecco's Modified Eagle's Medium (DMEM) and HMC3 cell was grown in Minimum Essential Media Eagle (MEM) supplemented with 10% fetal bovine serum and 1% mixture of penicillin and streptomycin (Gibco). Cells were maintained at 37° C. in a humidified 5% CO2 atmosphere.
To measure the activity of RIPK1 inhibitor in necroptotic cells, HT-29 cells were treated by control DMSO, human TNFα (Peprotech, Rocky Hill, USA), SM-164 (Biovision, California, USA) and a pan-caspase inhibitor Z-VAD-FMK (Invivogen, San Diego, USA). Cells were pretreated with Z-VAD-FMK 20 μM. After 30 min, human TNFα 10 ng/ml, SM-164 100 nM and RIPK1 Inhibitor (0.0001, 0.001, 0.01, 0.02, 0.05, 0.1, 1, 10 uM) were treated for 24 h. Cell viability was measured by Cell Counting Kit 8 (CCK-8) (Dong-in, Seoul, Korea).

Compound | IC50 [nM]
O=C1Nc2ccccc2OC[C@@H]1NC(=O)n1cc(Cc2ccccc2)cn1 [Example 1, (S)-4-benzyl-N-(4-oxo-2,3,4,5-tetrahydrobenzo[b][1,4]oxazepin-3-yl)-1H-pyrazole-1-carboxamide] | < 100
O=C1Nc2ccccc2OC[C@@H]1NC(=O)n1cc(Cc2cccc(F)c2)cn1 [Example 2, (S)-4-(3-fluorobenzyl)-N-(4-oxo-2,3,4,5-tetrahydrobenzo[b][1,4]oxazepin-3-yl)-11H-pyrazole-1-carboxamide] | < 100
CN1C(=O)[C@@H](NC(=O)n2cc(Cc3cccc(F)c3)cn2)COc2ccccc21 [Example 3, (S)-4-(3-fluorobenzyl)-N-(5-methyl-4-oxo-2,3,4,5-tetrahydrobenzo[b][1,4]oxazepin-3-yl)-4-1H-pyrazole-1-carboxamide] | < 10
CN1C(=O)[C@@H](NC(=O)n2cc(Cc3cccc(Cl)c3)cn2)COc2ccccc21 [Example 4, (S)-4-(3-chlorobenzyl)-N-(5-methyl-4-oxo-2,3,4,5-tetrahydrobenzo[b][1,4]oxazepin-3-yl)-1H-pyrazole-1-carboxamide] | < 10
Cc1cccc(Cc2cnn(C(=O)N[C@H]3COc4ccccc4N(C)C3=O)c2)c1 [Example 5, (S)—N-(5-methyl-4-oxo-2,3,4,5-tetrahydrobenzo[b][1,4]oxazepin-3-yl)-4-(3-methylbenzyl)-1H-pyrazole-1-carboxamide] | < 10
CN1C(=O)[C@@H](NC(=O)n2cc(Cc3cccc(C(F)(F)F)c3)cn2)COc2ccccc21 [Example 6, (S)—N-(5-methyl-4-oxo-2,3,4,5-tetrahydrobenzo[b][1,4]oxazepin-3-yl)-4-(3-(trifluoromethyl)benzyl)-1H-pyrazole-1-carboxamide] | < 100
CN1C(=O)[C@@H](NC(=O)n2cc(Cc3cccc(C#N)c3)cn2)COc2ccccc21 [Example 7, (S)-4-(3-cyanobenzyl)-N-(5-methyl-4-oxo-2,3,4,5-tetrahydrobenzo[b][1,4]oxazepin-3-yl)-1H-pyrazole-1-carboxamide] | < 10
CN1C(=O)[C@@H](NC(=O)n2cc(Cc3ccc(F)cc3)cn2)COc2ccccc21 [Example 8, (S)-4-(4-fluorobenzyl)-N-(5-methyl-4-oxo-2,3,4,5-tetrahydrobenzo[b][1,4]oxazepin-3-yl)-1H-pyrazole-1-carboxamide] | < 100
CN1C(=O)[C@@H](NC(=O)n2cc(Cc3ccc(C#N)cc3)cn2)COc2ccccc21 [Example 9, (S)-4-(4-cyanobenzyl)-N-(5-methyl-4-oxo-2,3,4,5-tetrahydrobenzo[b][1,4]oxazepin-3-yl)-1H-pyrazole-1-carboxamide] | < 100
O=C1Nc2c(F)cccc2OC[C@@H]1NC(=O)n1cc(Cc2ccccc2)cn1 [Example 10, (S)-4-benzyl-N-(6-fluoro-4-oxo-2,3,4,5-tetrahydrobenzo[b][1,4]oxazepin-3-yl)-1H-pyrazole-1-carboxamide] | < 100
O=C1Nc2c(F)cccc2OC[C@@H]1NC(=O)n1cc(Cc2cccc(F)c2)cn1 [Example 11, (S)—N-(6-fluoro-4-oxo-2,3,4,5-tetrahydrobenzo[b][1,4]oxazepin-3-yl)-4-(3-fluorobenzyl)-1H-pyrazole-1 carboxamide] | < 100
CN1C(=O)[C@@H](NC(=O)n2cc(Cc3ccccc3)cn2)COc2cccc(F)c21 [Example 12, (S)-4-benzyl-N-(6-fluoro-5-methyl-4-oxo-2,3,4,5-tetrahydrobenzo[b][1,4]oxazepin-3-yl)-1H-pyrazole-1-carboxamide] | < 10
CN1C(=O)[C@@H](NC(=O)n2cc(Cc3cccc(F)c3)cn2)COc2cccc(F)c21 [Example 13, (S)—N-(6-fluoro-5-methyl-4-oxo-2,3,4,5-tetrahydrobenzo[b][1,4]oxazepin-3-yl)-4-(3-fluorobenzyl)-1H-pyrazole-1-carboxamide] | < 10
O=C1Nc2c(F)cc(F)cc2OC[C@@H]1NC(=O)n1cc(Cc2ccccc2)cn1 [Example 14, (S)-4-benzyl-N-(6,8-difluoro-4-oxo-2,3,4,5-tetrahydrobenzo[b][1,4]oxazepin-3-yl)-1H-pyrazole-1-carboxamide] | < 100
O=C1Nc2c(F)cc(F)cc2OC[C@@H]1NC(=O)n1cc(Cc2cccc(F)c2)cn1 [Example 15, (S)—N-(6,8-difluoro-4-oxo-2,3,4,5-tetrahydrobenzo[b][1,4]oxazepin-3-yl)-4-(3-fluorobenzyl)-1H-pyrazole-1-carboxamide] | > 100
CN1C(=O)[C@@H](NC(=O)n2cc(Cc3ccccc3)cn2)COc2cc(F)cc(F)c21 [Example 16, (S)-4-benzyl-N-(6,8-difluoro-5-methyl-4-oxo-2,3,4,5-tetrahydrobenzo[b][1,4]oxazepin-3-yl)-1H-pyrazole-1-carboxamide] | < 10

Compound | IC50 [nM]
CN1C(=O)[C@@H](NC(=O)n2cc(Cc3cccc(F)c3)cn2)COc2cc(F)cc(F)c21 [Example 17, (S)—N-(6,8-difluoro-5-methyl-4-oxo-2,3,4,5-tetrahydrobenzo[b][1,4]oxazepin-3-yl)-4-(3-fluorobenzyl)-1H-pyrazole-1-carboxamide] | < 10
COc1ccc2c(c1)OC[C@H](NC(=O)n1cc(Cc3ccccc3)cn1)C(=O)N2C [Example 18, (S)-4-benzyl-N-(8-methoxy-5-methyl-4-oxo-2,3,4,5-tetrahydrobenzo[b][1,4]oxazepin-3-yl)-1H-pyrazole-1-carboxamide] | < 10
COc1ccc2c(c1)N(C)C(=O)[C@@H](NC(=O)n1cc(Cc3ccccc3)cn1)CO2 [Example 19, (S)-4-benzyl-N-(7-methoxy-5-methyl-4-oxo-2,3,4,5-tetrahydrobenzo[b][1,4]oxazepin-3-yl)-1H-pyrazole-1-carboxamide] | < 10
COc1ccc2c(c1)N(C)C(=O)[C@@H](NC(=O)n1cc(Cc3cccc(F)c3)cn1)CO2 [Example 20, (S)-4-(3-fluorobenzyl)-N-(7-methoxy-5-methyl-4-oxo-2,3,4,5-tetrahydrobenzo[b][1,4]oxazepin-3-yl)-1H-pyrazole-1-carboxamide] | < 10
CN1C(=O)[C@@H](NC(=O)n2cc(Cc3cccc(F)c3)cn2)COc2cccnc21 [Example 21, (S)-4-(3-fluorobenzyl)-N-(5-methyl-4-oxo-2,3,4,5-tetrahydropyrido[3,2-b][1,4]oxazepin-3-yl)-1H-pyrazole-1-carboxamide] | < 10
CN1C(=O)[C@@H](NC(=O)n2cc(Cc3ccccc3)cn2)COc2ccncc21 [Example 22, (S)-4-benzyl-N-(5-methyl-4-oxo-2,3,4,5-tetrahydropyrido[4,3-b][1,4]oxazepin-3-yl)-1H-pyrazole-1-carboxamide] | < 10
CN1C(=O)[C@@H](NC(=O)n2cc(Cc3cccc(F)c3)cn2)COc2ccncc21 [Example 23, (S)-4-(3-fluorobenzyl)-N-(5-methyl-4-oxo-2,3,4,5-tetrahydropyrido[4,3-b][1,4]oxazepin-3-yl)-1H-pyrazole-1-carboxamide] | < 10
CN1C(=O)[C@@H](NC(=O)n2cc(Cc3ccccc3)cn2)COc2cnccc21 [Example 24, (S)-4-benzyl-N-(1-methyl-2-oxo-1,2,3,4-tetrahydropyrido[3,4-b][1,4]oxazepin-3-yl)-1H-pyrazole-1-carboxamide] | < 100
O=C1Nc2c(F)cc(F)cc2CCC1NC(=O)n1cc(Cc2ccccc2)cn1 (stereo not shown) [Example 25, 4-benzyl-N-(7,9-difluoro-2-oxo-2,3,4,5-tetrahydro-1H-benzo[b]azepin-3-yl)-1H-pyrazole-1-carboxamide] | < 100
O=C1Nc2c(F)cc(F)cc2CC[C@@H]1NC(=O)n1cc(Cc2cccc(F)c2)cn1 [Example 26, (S)—N-(7,9-difluoro-2-oxo-2,3,4,5-tetrahydro-1H-benzo[b]azepin-3-yl)-4-(3-fluorobenzyl)-1H-pyrazole-1-carboxamide] | < 10
CN1C(=O)C(NC(=O)n2cc(Cc3ccccc3)cn2)CCc2cc(F)cc(F)c21 (stereo not shown) [Example 27, 4-benzyl-N-(7,9-difluoro-1-methyl-2-oxo-2,3,4,5-tetrahydro-1H-benzo[b]azepin-3-yl)-1H-pyrazole-1-carboxamide] | < 10
CN1C(=O)C(NC(=O)n2cc(Cc3cccc(F)c3)cn2)CCc2cc(F)cc(F)c21 (stereo not shown) [Example 28, N-(7,9-difluoro-1-methyl-2-oxo-2,3,4,5-tetrahydro-1H-benzo[b]azepin-3-yl)-4-(3-fluorobenzyl)-1H-pyrazole-1-carboxamide] | < 10
O=C1Nc2nccnc2CCC1NC(=O)n1cc(Cc2ccccc2)cn1 (stereo not shown) [Example 29, 4-benzyl-N-(6-oxo-6,7,8,9-tetrahydro-5H-pyrazino[2,3-b]azepin-7-yl)-1H-pyrazole-1-carboxamide] | > 100
O=C1Nc2nccnc2CCC1NC(=O)n1cc(Cc2cccc(F)c2)cn1 (stereo not shown) [Example 30, 4-(3-fluorobenzyl)-N-(6-oxo-6,7,8,9-tetrahydro-5H-pyrazino[2,3-b]azepin-7-yl)-1H-pyrazole-1-carboxamide] | > 100
CN1C(=O)C(NC(=O)n2cc(Cc3ccccc3)cn2)CCc2nccnc21 (stereo not shown) [Example 31, 4-benzyl-N-(5-methyl-6-oxo-6,7,8,9-tetrahydro-5H-pyrazino[2,3-b]azepin-7-yl)-1H-pyrazole-1-carboxamide] | > 100
